# Reference: patent US20070232601A1, “Vla-4 Inhibitor” (priority 2004, published 2007)
# Biological target: T1, hα4 and β1 integrins (VLA-4) (Homo sapiens, UniProt P05556+P13612)
# T1 construct: expressed in transfected cells; host or cells: CHO cells
# Assay: In vitro evaluation: inhibition of binding of CHO cells expressing hα4 and β1 integrins to Eu3+-hVCAM-1 D1D7-IgG
# Conditions: ligand Eu3+-hVCAM-1 D1D7-IgG 2 nM, Ki calculated from IC50
# Experimental: CHO cells which were forced to be expressed by transduction of hα4 and β1 integrins are seeded (3×10^4 cells/100 μl/well) on a Costar 3599 plate, and cultured for 2 days. A medium is washed with a buffer A* two times, and Eu^3+-hVCAM-1 D1D7-IgG which was diluted with an assay buffer A** to 2 nM is added at 50 μl/well. A test substance which was diluted with 2% DMSO-assay buffer (in the presence or the absence of 6% human serum albumin) is added at 50 μl/well (A solution which was separately diluted is added to a well in which Scatchard analysis is performed), this is stirred with a plate mixer for 5 minutes, and allowed to stand at room temperature for 1 hour. Thereafter, this is washed with a buffer A four times, a potentiating reagent (manufactured by DELFIA) is added at 100 μl/well, this is shaken for 5 minutes using a plate mixer, and a fluorescence intensity is measured with a time-resolved fluorometer (DELFIA Wallac). IC50 (concentration at which binding of CHO cell and Eu^3+-hVCAM-1 D1D7-IgG is inhibited by 50%) of a test substance is obtained from an integration rate obtained from a calculation equation: [(FT−FNS)−(FI−FNS)]/[(FT−FNS)]×100, wherein FT indicates a fluorescence intensity of a well not containing a test substance, FNS indicates a fluorescence intensity of a well not containing a test substance and hVCAM-1 D1D7-IgG, and FI indicates a fluorescence intensity containing a test substance. A Kd value showing strength of binding and Bmax (maximum binding amount) were presumed in a range of 0.06 to 20 nM according to the Scachard analysis method. [formula]
# A Ki value was calculated according to the above equation ([L] is ligand concentration)
# [* buffer A: 25 mM HEPES (pH 7.5), 150 mM NaCl, 1 mM Ca^2+, 1 mM Mg^2+, 4 mM Mn^2+; ** assay buffer: 25 mM HEPES (pH 7.5), 150 mM NaCl, 1 mM Ca^2+, 1 mM Mg^2+, 4 mM Mn^2+, 0.1% BSA, 20 μM DTPA, with/without 6% ALBUMIN, HUMAN SERUM (C/NA-1653, SIGMA)]
# T1 sequence (P13612 34-1032): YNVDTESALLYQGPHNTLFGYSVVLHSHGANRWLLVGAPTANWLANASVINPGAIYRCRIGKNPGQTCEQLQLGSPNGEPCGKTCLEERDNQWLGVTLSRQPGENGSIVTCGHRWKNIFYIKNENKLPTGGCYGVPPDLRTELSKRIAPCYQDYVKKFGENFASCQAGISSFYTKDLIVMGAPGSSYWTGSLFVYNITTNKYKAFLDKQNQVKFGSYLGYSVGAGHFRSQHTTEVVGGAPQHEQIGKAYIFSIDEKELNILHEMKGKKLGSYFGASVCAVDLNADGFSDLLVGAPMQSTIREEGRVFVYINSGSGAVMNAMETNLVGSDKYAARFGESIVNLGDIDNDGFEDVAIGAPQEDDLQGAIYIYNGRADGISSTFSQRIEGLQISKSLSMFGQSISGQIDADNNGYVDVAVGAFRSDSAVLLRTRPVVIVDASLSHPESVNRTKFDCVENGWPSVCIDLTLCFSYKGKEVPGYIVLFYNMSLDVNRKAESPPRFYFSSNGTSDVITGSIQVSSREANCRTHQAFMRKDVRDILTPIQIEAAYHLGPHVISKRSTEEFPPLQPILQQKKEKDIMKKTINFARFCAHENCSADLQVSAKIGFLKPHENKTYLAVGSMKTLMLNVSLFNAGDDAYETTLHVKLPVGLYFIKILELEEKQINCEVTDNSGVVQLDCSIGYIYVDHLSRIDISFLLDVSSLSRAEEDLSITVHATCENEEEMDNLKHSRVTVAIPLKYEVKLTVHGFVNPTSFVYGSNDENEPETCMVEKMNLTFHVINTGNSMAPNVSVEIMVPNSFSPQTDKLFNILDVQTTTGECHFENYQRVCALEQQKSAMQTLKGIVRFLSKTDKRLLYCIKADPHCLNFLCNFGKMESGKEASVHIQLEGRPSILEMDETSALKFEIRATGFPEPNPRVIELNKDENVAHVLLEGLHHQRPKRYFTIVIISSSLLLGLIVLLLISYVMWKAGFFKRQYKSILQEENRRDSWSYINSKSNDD
# T1 sequence (P05556 21-798): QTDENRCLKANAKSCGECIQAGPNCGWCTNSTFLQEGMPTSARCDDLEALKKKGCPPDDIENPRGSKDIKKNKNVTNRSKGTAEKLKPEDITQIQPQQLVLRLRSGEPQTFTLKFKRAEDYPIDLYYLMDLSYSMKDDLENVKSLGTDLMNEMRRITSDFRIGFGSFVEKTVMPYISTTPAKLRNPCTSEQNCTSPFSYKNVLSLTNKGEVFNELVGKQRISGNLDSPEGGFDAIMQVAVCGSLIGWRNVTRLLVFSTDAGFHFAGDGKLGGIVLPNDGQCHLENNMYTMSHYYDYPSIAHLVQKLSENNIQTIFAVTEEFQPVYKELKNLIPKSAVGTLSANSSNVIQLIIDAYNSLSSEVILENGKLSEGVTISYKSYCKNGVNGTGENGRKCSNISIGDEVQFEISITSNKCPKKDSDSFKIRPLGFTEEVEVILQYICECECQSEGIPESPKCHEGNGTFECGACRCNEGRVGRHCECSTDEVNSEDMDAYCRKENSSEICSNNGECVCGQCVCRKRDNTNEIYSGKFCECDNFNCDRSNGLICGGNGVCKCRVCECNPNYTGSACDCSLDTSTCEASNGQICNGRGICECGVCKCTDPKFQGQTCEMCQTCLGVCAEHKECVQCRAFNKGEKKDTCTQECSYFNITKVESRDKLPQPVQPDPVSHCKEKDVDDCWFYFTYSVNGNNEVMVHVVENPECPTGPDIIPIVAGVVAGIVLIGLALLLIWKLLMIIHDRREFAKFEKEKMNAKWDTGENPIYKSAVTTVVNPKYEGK
row,SMILES,Ki
1,"CON(C)[C@H]1C[C@@H](c2ncc(CCC(=O)O)s2)N(C(=O)Cc2cc(Cl)c(NC(=O)c3csc4ccccc34)cc2F)C1 [Example 129, 3-[2-[1-[4-(3-Benzo[b]thiophenylcarbonylamino)-5-chloro-2-fluorophenylacetyl]-(4S)—N,O-dimethylhydroxylamino-(2S)-pyrrolidinyl]-5-thiazolyl]propionic acid]",2.4 nM
2,CCO[C@H]1CCN(C(=O)Cc2cc(Cl)c(NC(=O)c3coc4ccccc34)cc2F)[C@@H]1c1ncc(CCC(=O)O)s1 [Example 95],4.2 nM
3,CC(C)O[C@H]1C[C@@H](c2ncc(CCC(=O)O)s2)N(C(=O)Cc2cc(Cl)c(NC(=O)c3coc4ccccc34)cc2F)C1 [Example 38],3.3 nM
4,"CO[C@H]1C[C@@H](c2cc(CCC(=O)O)on2)N(C(=O)Cc2cc(Cl)c(NC(=O)c3csc4ccccc34)cc2Cl)C1 [Example 32, 3-[3-[1-[[4-[(3-Benzo[b]thienylcarbonyl)amino]-2,5-dichlorophenyl]acetyl]-(4S)-methoxy-(2S)-pyrrolidinyl]-5-isoxazolyl]propionic acid]",2.1 nM
5,"Cn1cc(C(=O)Nc2cc(F)c(CC(=O)N3CCC[C@H]3c3ncc(CCC(=O)O)s3)cc2Cl)c2ccccc21 [Example 27, 3-[2-[1-[5-Chloro-2-fluoro-4-(1-methyl-3-indolylcarbonyl)aminophenylacetyl]-(2S)-pyrrolidinyl]-5-thiazolyl]propionic acid]",1.2 nM
6,"CO[C@H]1C[C@@H](c2ncc(CCC(=O)O)o2)N(C(=O)Cc2cc(Cl)c(NC(=O)c3cn(C)c4ccccc34)cc2Cl)C1 [Example 12, 3-[2-[1-[2,5-Dichloro-4-(1-methyl-3-indolylcarbonylamino)phenylacetyl]-(4S)-methoxy-(2S)-pyrrolidinyl]-5-oxazolyl]propionic acid]",18 nM
7,"CON(C)[C@H]1C[C@@H](c2ncc(CCC(=O)O)s2)N(C(=O)Cc2cc(Cl)c(NC(=O)c3cn(C)c4ccccc34)cc2Cl)C1 [Example 128, 3-[3-[1-[2,5-Dichloro-4-(1-methyl-3-indolylcarbonylamino)phenylacetyl]-(4S)—N,O-dimethylhydroxylamino-(2S)-pyrrolidinyl]-5-thiazolyl]propionic acid]",6.7 nM
8,"CO[C@H]1C[C@@H](c2ncc(CCC(=O)O)o2)N(C(=O)Cc2cc(Cl)c(NC(=O)c3csc4ccccc34)cc2Cl)C1 [Example 14, 3-[2-[1-[[4-[(3-Benzo[b]thienylcarbonyl)amino]-2,5-dichlorophenyl]acetyl]-(4S)-methoxy-(2S)-pyrrolidinyl]-5-oxazolyl]propionic acid]",4 nM
9,"COc1ccc(F)cc1Nc1nc2ccc(CC(=O)N3C[C@@H](OC)C[C@H]3c3ncc(CCC(=O)O)s3)c(F)c2o1 [Example 9, 3-[2-[1-[[7-Fluoro-2-(5-fluoro-2-methoxyphenylamino)-1,3-benzoxazol-6-yl]acetyl]-(4S)-methoxy-(2S)-pyrrolidinyl]-5-thiazolyl]propionic acid]",0.96 nM
10,"O=C(O)CCc1cnc([C@@H]2[C@@H](O)CCN2C(=O)Cc2cc(Cl)c(Nc3nc4ccccc4o3)cc2F)s1 [Example 117, 3-[2-[1-[4-(2-Benzoxazolyl)amino-5-chloro-2-fluorophenyl]acetyl-(3S)-hydroxy-(2S)-pyrrolidinyl]-5-thiazolyl]propionic acid]",35 nM
11,"CO[C@H]1C[C@@H](c2cc(CCC(=O)O)on2)N(C(=O)Cc2cc(Cl)c(NC(=O)c3csc4ccccc34)cc2F)C1 [Example 33, 3-[3-[1-[[4-[(3-Benzo[b]thienylcarbonyl)amino]-5-chloro-2-fluorophenyl]acetyl]-(4S)-methoxy-(2S)-pyrrolidinyl]-5-isoxazolyl]propionic acid]",2 nM
12,CCO[C@H]1CCN(C(=O)Cc2cc(Cl)c(NC(=O)c3coc4ccccc34)cc2F)[C@@H]1c1ncc(CCC(=O)O)o1 [Example 101],9.8 nM
13,"COc1ccccc1Nc1nc2ccc(CC(=O)N3C[C@@H](OC)C[C@H]3c3ncc(CCC(=O)O)o3)c(F)c2o1 [Example 17, 3-[2-[1-[[7-Fluoro-2-(2-methoxyphenylamino)-1,3-benzoxazol-6-yl]acetyl]-(4S)-methoxy-(2S)-pyrrolidinyl]-5-oxazolyl]propionic acid]",15 nM
14,"CO[C@H]1C[C@@H](c2cc(CCC(=O)O)on2)N(C(=O)Cc2cc(Cl)c(NC(=O)c3cn(C)c4ccccc34)cc2F)C1 [Example 31, 3-[3-[1-[5-Chloro-2-fluoro-4-(1-methyl-3-indolylcarbonyl)aminophenylacetyl]-(4S)-methoxy-(2S)-pyrrolidinyl]-5-isoxazolyl]propionic acid]",5.8 nM
15,"CON(C)[C@H]1C[C@@H](c2ncc(CCC(=O)O)s2)N(C(=O)Cc2cc(Cl)c(NC(=O)c3coc4ccccc34)cc2Cl)C1 [Example 132, 3-[2-[1-[-(3-Benzo[b]furanylcarbonylamino)-2,5-dichlorophenylacetyl]-(4S)—N,O-dimethylhydroxylamino-(2S)-pyrrolidinyl]-5-thiazolyl]propionic acid]",13 nM
16,CO[C@H]1C[C@@H](c2ncc(CCC(=O)O)s2)N(C(=O)Cc2ccc3nc(Nc4cc(F)ccc4C)oc3c2F)C1 [Example 8],0.34 nM
17,"COC[C@@H]1CC[C@@H](c2ncc(CCC(=O)O)s2)N1C(=O)Cc1cc(Cl)c(NC(=O)c2cn(C)c3ccccc23)cc1Cl [Example 54, 3-[2-[1-[2,5-Dichloro-4-(1-methyl-3-indolylcarbonylamino)phenylacetyl]-(5S)-methoxymethyl-(2S)-pyrrolidinyl]-5-thiazolyl]propionic acid]",24 nM
18,"Cn1cc(C(=O)Nc2cc(F)c(CC(=O)N3C[C@@H](OC4CCC4)C[C@H]3c3ncc(CCC(=O)O)s3)cc2Cl)c2ccccc21 [Example 40, 3-[2-[1-[5-Chloro-2-fluoro-4-(1-methyl-3-indolylcarbonyl)aminophenylacetyl]-(4S)-cyclobutoxy-(2S)-pyrrolidinyl]-5-thiazolyl]propionic acid]",4 nM
19,"Cn1cc(C(=O)Nc2cc(Cl)c(CC(=O)N3C[C@@H](OC4CCC4)C[C@H]3c3ncc(CCC(=O)O)s3)cc2Cl)c2ccccc21 [Example 39, 3-[2-[1-[2,5-Dichloro-4-(1-methyl-3-indolylcarbonylamino)phenylacetyl]-(4S)-cyclobutoxy-(2S)-pyrrolidinyl]-5-thiazolyl]propionic acid]",6.3 nM
20,"CCO[C@H]1CCN(C(=O)Cc2cc(Cl)c(NC(=O)c3cn(C)c4ccccc34)cc2F)[C@@H]1c1ncc(CCC(=O)O)o1 [Example 97, 3-[2-[1-[[5-Chloro-2-fluoro-4-(1-methyl-3-indolylcarbonylamino)phenyl]acetyl]-(3S)-ethoxy-(2S)-pyrrolidinyl]-5-oxazolyl]propionic acid]",9.2 nM
21,"COC[C@@H]1CC[C@@H](c2ncc(CCC(=O)O)s2)N1C(=O)Cc1cc(Cl)c(NC(=O)c2csc3ccccc23)cc1F [Example 55, 3-[2-[1-[4-[(3-Benzo[b]thienylcarbonyl)amino]-5-chloro-2-fluorophenylacetyl]-(5S)-methoxymethyl-(2S)-pyrrolidinyl]-5-thiazolyl]propionic acid]",17 nM
22,"CCOC[C@@H]1CC[C@@H](c2ncc(CCC(=O)O)s2)N1C(=O)Cc1cc(Cl)c(NC(=O)c2cn(C)c3ccccc23)cc1Cl [Example 48, 3-[2-[1-[2,5-Dichloro-4-(1-methyl-3-indolylcarbonylamino)phenylacetyl]-(5S)-ethoxymethyl-(2S)-pyrrolidinyl]-5-thiazolyl]propionic acid]",36 nM
23,"COC[C@@H]1CC[C@@H](c2ncc(CCC(=O)O)s2)N1C(=O)Cc1cc(Cl)c(NC(=O)c2cn(C)c3ccccc23)cc1F [Example 53, 3-[2-[1-[5-Chloro-2-fluoro-4-(1-methyl-3-indolylcarbonyl)aminophenylacetyl]-(5S)-methoxymethyl-(2S)-pyrrolidinyl]-5-thiazolyl]propionic acid]",16 nM
24,"Cn1cc(C(=O)Nc2cc(F)c(CC(=O)N3[C@H](c4ncc(CCC(=O)O)s4)C[C@@H]4CCCC[C@@H]43)cc2Cl)c2ccccc21 [Example 59, 3-[2-[1-[5-Chloro-2-fluoro-4-(1-methyl-3-indolylcarbonyl)aminophenylacetyl]-(2S)-octahydroindolyl]-5-thiazolyl]propionic acid]",17 nM
25,"CO[C@@H]1C[C@@H](c2ncc(CCC(=O)O)s2)N(C(=O)Cc2cc(Cl)c(NC(=O)c3cn(C)c4ccccc34)cc2Cl)C1 [Example 24, 3-[2-[1-[2,5-Dichloro-4-(1-methyl-3-indolylcarbonylamino)phenylacetyl]-(4R)-methoxy-(2S)-pyrrolidinyl]-5-thiazolyl]propionic acid]",6.5 nM
